Source: ChEMBL document CHEMBL1127385, “Synthesis and diuretic activity of alkyl- and arylguanidine analogs of N,N'-dicyclohexyl-4-morpholinecarboxamidine in rats and dogs” (J Med Chem, 1994)

Legend:
Conditions in all cases: in vivo, po
Rattus norvegicus [1] = experiment: Total electrolytic excretion of chlorine in urine of rats after peroral administration of 27.9 uM/Kg of drug; type: ADME, organism-based
Rattus norvegicus [2] = experiment: Tested for the diuretic activity by measuring the urinary volume after peroral administering 279 uM/Kg of drug in rats; type: ADME, organism-based, Urine
Rattus norvegicus [3] = experiment: Total electrolytic excretion of sodium in urine of rats after peroral administration of 83.8 uM/Kg of drug; type: ADME, organism-based
Rattus norvegicus [4] = experiment: Total electrolytic excretion of chlorine in urine of rats after peroral administration of 83.8 uM/Kg of drug; type: ADME, organism-based
Rattus norvegicus [5] = experiment: Ratio of Total electrolytic excretion of sodium and potassium in urine of rats after peroral administration of 27.9 uM/Kg of drug; type: ADME, organism-based
Rattus norvegicus [6] = experiment: Total electrolytic excretion of sodium in urine of rats after peroral administration of 279 uM/Kg of drug; type: ADME, organism-based
Rattus norvegicus [7] = experiment: Ratio of Total electrolytic excretion of sodium and potassium in urine of rats after peroral administration of 83.8 uM/Kg of drug; type: ADME, organism-based
Rattus norvegicus [8] = experiment: Ratio of Total electrolytic excretion of sodium and potassium in urine of rats after peroral administration of 279 uM/Kg of drug; type: ADME, organism-based
Rattus norvegicus [9] = experiment: Total electrolytic excretion of potassium in urine of rats after peroral administration of 83.8 uM/Kg of drug; type: ADME, organism-based
Rattus norvegicus [10] = experiment: Total electrolytic excretion of potassium in urine of rats after peroral administration of 27.9 uM/Kg of drug; type: ADME, organism-based
Rattus norvegicus [11] = experiment: Total electrolytic excretion of chlorine in urine of rats after peroral administration of 279 uM/Kg of drug; type: ADME, organism-based
Rattus norvegicus [12] = experiment: Tested for the diuretic activity by measuring the urinary volume after peroral administering 27.9 uM/Kg of drug in rats; type: ADME, organism-based, Urine
Rattus norvegicus [13] = experiment: Total electrolytic excretion of potassium in urine of rats after peroral administration of 279 uM/Kg of drug; type: ADME, organism-based
Rattus norvegicus [14] = experiment: Total electrolytic excretion of sodium in urine of rats after peroral administration of 27.9 uM/Kg of drug; type: ADME, organism-based
Rattus norvegicus [15] = experiment: Tested for the diuretic activity by measuring the urinary volume after peroral administering 83.8 uM/Kg of drug in rats; type: ADME, organism-based, Urine
Rattus norvegicus [16] = experiment: Tested for the diuretic activity by measuring the urinary volume after peroral administering 0 uM/Kg of drug in rats; type: ADME, organism-based, Urine
Rattus norvegicus [17] = experiment: Total electrolytic excretion of potassium in urine of rats after peroral administration of 0 uM/Kg of drug; type: ADME, organism-based
Rattus norvegicus [18] = experiment: Total electrolytic excretion of sodium in urine of rats after peroral administration of 0 uM/Kg of drug; type: ADME, organism-based
Rattus norvegicus [19] = experiment: Ratio of Total electrolytic excretion of sodium and potassium in urine of rats after peroral administration of 31.6 uM/Kg of drug; type: ADME, organism-based
Rattus norvegicus [20] = experiment: Total electrolytic excretion of sodium in urine of rats after peroral administration of 316 uM/Kg of drug; type: ADME, organism-based
Rattus norvegicus [21] = experiment: Ratio of Total electrolytic excretion of sodium and potassium in urine of rats after peroral administration of 94.9 uM/Kg of drug; type: ADME, organism-based
Rattus norvegicus [22] = experiment: Total electrolytic excretion of potassium in urine of rats after peroral administration of 94.9 uM/Kg of drug; type: ADME, organism-based
Rattus norvegicus [23] = experiment: Ratio of Total electrolytic excretion of sodium and potassium in urine of rats after peroral administration of 316 uM/Kg of drug; type: ADME, organism-based
Rattus norvegicus [24] = experiment: Total electrolytic excretion of potassium in urine of rats after peroral administration of 316 uM/Kg of drug; type: ADME, organism-based
Rattus norvegicus [25] = experiment: Total electrolytic excretion of chlorine in urine of rats after peroral administration of 31.6 uM/Kg of drug; type: ADME, organism-based
Rattus norvegicus [26] = experiment: Tested for the diuretic activity by measuring the urinary volume after peroral administering 94.9 uM/Kg of drug in rats; type: ADME, organism-based, Urine
Rattus norvegicus [27] = experiment: Tested for the diuretic activity by measuring the urinary volume after peroral administering 316 uM/Kg of drug in rats; type: ADME, organism-based, Urine
Rattus norvegicus [28] = experiment: Total electrolytic excretion of potassium in urine of rats after peroral administration of 31.6 uM/Kg of drug; type: ADME, organism-based
Rattus norvegicus [29] = experiment: Total electrolytic excretion of sodium in urine of rats after peroral administration of 31.6 uM/Kg of drug; type: ADME, organism-based
Rattus norvegicus [30] = experiment: Total electrolytic excretion of chlorine in urine of rats after peroral administration of 94.9 uM/Kg of drug; type: ADME, organism-based
Rattus norvegicus [31] = experiment: Total electrolytic excretion of sodium in urine of rats after peroral administration of 94.9 uM/Kg of drug; type: ADME, organism-based
Rattus norvegicus [32] = experiment: Total electrolytic excretion of chlorine in urine of rats after peroral administration of 316 uM/Kg of drug; type: ADME, organism-based
Rattus norvegicus [33] = experiment: Tested for the diuretic activity by measuring the urinary volume after peroral administering 31.6 uM/Kg of drug in rats; type: ADME, organism-based, Urine

C1CCCC(/N=C(/NC2CCCCCC2)N2CCOCC2)CC1
Excretion Cl- (Rattus norvegicus [1]): 1.37 m equiv | V (Rattus norvegicus [2]): 9.1 mL | Excretion Na+ (Rattus norvegicus [3]): 1.53 m equiv | Excretion Cl- (Rattus norvegicus [4]): 1.63 m equiv | Ratio (Rattus norvegicus [5]): 3.8 | Excretion Na+ (Rattus norvegicus [6]): 1.54 m equiv | Ratio (Rattus norvegicus [7]): 5 | Ratio (Rattus norvegicus [8]): 5.6 | Excretion K+ (Rattus norvegicus [9]): 0.31 m equiv | Excretion K+ (Rattus norvegicus [10]): 0.32 m equiv | Excretion Cl- (Rattus norvegicus [11]): 1.66 m equiv | V (Rattus norvegicus [12]): 8.4 mL | Excretion K+ (Rattus norvegicus [13]): 0.28 m equiv | Excretion Na+ (Rattus norvegicus [14]): 1.21 m equiv | V (Rattus norvegicus [15]): 9.7 mL

NS(=O)(=O)c1cc(C(=O)O)c(NCc2ccco2)cc1Cl [FUROSEMIDE]
V (Rattus norvegicus [16]): 4.4 mL | Excretion K+ (Rattus norvegicus [17]): 0.24 m equiv | Excretion Na+ (Rattus norvegicus [18]): 0.65 m equiv

C1CCC(N/C(=N/C2CCCC2)N2CCOCC2)CC1
Ratio (Rattus norvegicus [19]): 2.2 | Excretion Na+ (Rattus norvegicus [20]): 1.32 m equiv | Ratio (Rattus norvegicus [21]): 3.2 | Excretion K+ (Rattus norvegicus [22]): 0.26 m equiv | Ratio (Rattus norvegicus [23]): 4.1 | Excretion K+ (Rattus norvegicus [24]): 0.32 m equiv | Excretion Cl- (Rattus norvegicus [25]): 0.65 m equiv | V (Rattus norvegicus [26]): 6.3 mL | V (Rattus norvegicus [27]): 8.9 mL | Excretion K+ (Rattus norvegicus [28]): 0.28 m equiv | Excretion Na+ (Rattus norvegicus [29]): 0.62 m equiv | Excretion Cl- (Rattus norvegicus [30]): 0.92 m equiv | Excretion Na+ (Rattus norvegicus [31]): 0.84 m equiv | Excretion Cl- (Rattus norvegicus [32]): 1.4 m equiv | V (Rattus norvegicus [33]): 3.8 mL
